{"source": "paper PMC2825274", "about": "(PLoS ONE, 2010)", "assay_type_in_all_cases": "cell-based, influenza A virus", "key": {"[1]": {"tested_on": "A/Mississippi/3/01 (H1N1) H274Y (MS H274Y) oseltamivir-resistant"}, "[2]": {"tested_on": "influenza A/California/10/09 (H1N1) (CA10), S31N amantadine-resistant"}, "[3]": {"tested_on": "A/New Caledonia/20/99 (H1N1) V27A (NC V27A)"}, "[4]": {"tested_on": "A/Wisconsin/67/05 (H3N2) S31N (WI S31N)"}, "[5]": {"tested_on": "A/Hawaii/21/07 (H1N1) H274Y (HI H274Y)"}}, "note": "Where “and” joins values, the source holds several entries; their conditions need not be identical. Equal values may be shown once.", "data": [{"compound": "NC12CC3CC(CC(C3)C1)C2", "note": "[Amantadine]", "values": [{"measurement": "EC50", "setting": "[1]", "value": 0.060, "unit": "µg/mL"}, {"measurement": "Fold Reduction in EC50 Compared to (A)", "setting": "[2]", "value": "1.8 and 2.0 and 3.2"}, {"measurement": "Fold Reduction in EC50 Compared to (B)", "setting": "[2]", "value": 1.7}, {"measurement": "Fold Reduction in EC50 Compared to (C)", "setting": "[2]", "value": 1.6}, {"measurement": "amantadine concentration with significant contribution to the synergy of the TCAD regimen", "setting": "[2]", "value": "≥ 0.32", "unit": "µg/mL"}, {"measurement": "contribution to the total synergy of the TCAD regimen", "setting": "[2]", "value": 44, "unit": "%"}, {"measurement": "activity as a single agent", "setting": "[3]", "value": "no activity"}, {"measurement": "amantadine concentration at which the increase in synergy of the TCAD regimen was observed", "setting": "[3]", "value": 0.32, "unit": "µg/mL"}, {"measurement": "activity as a single agent", "setting": "[4]", "value": "no activity"}, {"measurement": "amantadine concentration at which the increase in synergy of the TCAD regimen was observed", "setting": "[4]", "value": 1, "unit": "µg/mL"}]}, {"compound": "NC(=O)c1ncn([C@@H]2O[C@H](CO)[C@@H](O)[C@H]2O)n1", "note": "[Ribavirin]", "values": [{"measurement": "EC50", "setting": "[1]", "value": 3.6, "unit": "µg/mL"}, {"measurement": "Fold Reduction in EC50 Compared to (B)", "setting": "[2]", "value": 1.5}, {"measurement": "Fold Reduction in EC50 Compared to (C)", "setting": "[2]", "value": 2.2}]}, {"compound": "Oseltamivir carboxylate", "values": [{"measurement": "EC50", "setting": "[1]", "value": 73, "unit": "µg/mL"}, {"measurement": "Fold Reduction in EC50 Compared to (A)", "setting": "[1]", "value": 21}, {"measurement": "Fold Reduction in EC50 Compared to (B)", "setting": "[1]", "value": ">29"}, {"measurement": "Fold Reduction in EC50 Compared to (C)", "setting": "[1]", "value": ">29"}, {"measurement": "antiviral activity as a single agent", "setting": "[1]", "value": "no antiviral activity"}, {"measurement": "contribution to the total synergy of the TCAD regimen", "setting": "[1]", "value": 76, "unit": "%"}, {"measurement": "fold reduction in susceptibility", "setting": "[1]", "value": 1480, "unit": "fold"}, {"measurement": "oseltamivir carboxylate concentration from which it contributed to the synergy of the TCAD regimen", "setting": "[1]", "value": "≥ 0.1", "unit": "µg/mL"}, {"measurement": "Fold Reduction in EC50 Compared to (B)", "setting": "[2]", "value": 6.5}, {"measurement": "Fold Reduction in EC50 Compared to (C)", "setting": "[2]", "value": 6.5}, {"measurement": "Fold Reduction in EC50 Compared to (B)", "setting": "[5]", "value": 3.3}, {"measurement": "Fold Reduction in EC50 Compared to (C)", "setting": "[5]", "value": 4.2}, {"measurement": "antiviral activity as a single agent", "setting": "[5]", "value": "no antiviral activity"}, {"measurement": "contribution to the total synergy of the TCAD regimen", "setting": "[5]", "value": 83, "unit": "%"}, {"measurement": "fold reduction in susceptibility", "setting": "[5]", "value": 300, "unit": "fold"}, {"measurement": "oseltamivir carboxylate concentration from which it contributed to the synergy of the TCAD regimen", "setting": "[5]", "value": "≥ 0.32", "unit": "µg/mL"}]}]}
